Reference: patent US10681909B2, “Herbicidal triazoles” (FMC Corporation, priority 2014, dated 2020)

Columns and labels:
canarygrass = experiment: Test D postemergence; assay type: in vivo, Phalaris minor; settings: scale 0 to 100
Source text: (§1) Seeds of plant species selected from bluegrass (annual bluegrass, Poa annua), blackgrass (Alopecurus myosuroides), canarygrass (Phalaris minor), chickweed (common chickweed, Stellaria media), galium (catchweed bedstraw, Galium aparine), bromegrass, down (downy bromegrass, Bromus tectorum), Russian thistle (Salsola kali), field poppy (Papaver rhoeas), field violet (Viola arvensis), foxtail, green (green foxtail, Setaria viridis), deadnettle (henbit deadnettle, Lamium amplexicaule), ryegrass, Ital. (Italian ryegrass, Lolium multiflorum), kochia (Kochia scoparia), lambsquarters (Chenopodium album), oilseed rape (Brassica napus), pigweed (Amaranthus retroflexus), chamomile (scentless chamomile, Matricaria inodora), speedwell (bird's-eye speedwell, Veronica persica), barley, spring (spring barley, Hordeum vulgare), wheat, spring (spring wheat, Triticum aestivum), buckwheat, wild (wild buckwheat, Polygonum convolvulus), wild mustard (Sinapis arvensis), oat, wild (wild oat, Avena fatua), radish, wild (wild radish, Raphanus raphanistrum), […]), barley, winter (winter barley, Hordeum vulgare), and wheat, winter (winter wheat, Triticum aestivum) were planted into a silt loam soil and treated preemergence with test chemicals formulated in a non-phytotoxic solvent mixture which included a surfactant. At the same time, these species were planted in pots containing Sunshine Redi-Earth® planting medium comprising spaghnum peat moss, vermiculite, starter nutrients and dolomitic limestone and treated with postemergence applications of the test chemicals formulated in the same manner. Plants ranged in height from 2 to 18 cm (1- to 4-leaf stage). Treated plants and controls were maintained in a controlled growth environment for 14 to 21 d after which time all species were compared to controls and visually evaluated. […] A dash (-) response means no test result.

ryegrass, Ital. [1] = experiment: Test D preemergence; assay type: in vivo, Lolium multiflorum; settings: for Plant response rating (0 to 100), Ryegrass, Ital.: 16 g ai/ha, 0 is no effect, 100 is complete control; for Plant response rating: Ryegrass, Ital.: scale 0 to 100
Source text: as §1

johnsongrass = experiment: Test C preemergence; assay type: in vivo, Sorghum halepense; settings: for Plant response rating (scale of 0 to 100 where 0 is no effect and 100 is complete control): Johnsongrass, preemergence; for Johnsongrass plant response rating (0 to 100): Preemergence, visual rating after 13 to 15 d
Source text: Seeds of plant species selected from blackgrass (Alopecurus myosuroides), ryegrass, Italian (Italian ryegrass, Lolium multiflorum), wheat (winter wheat, Triticum aestivum), galium (catchweed bedstraw, Galium aparine), corn (Zea mays), crabgrass, large (large crabgrass, Digitaria sanguinalis), foxtail, giant, (giant foxtail, Setaria faberii), johnsongrass (Sorghum halepense), lambsquarters (Chenopodium album), morningglory (Ipomoea coccinea), nutsedge, yellow (yellow nutsedge, Cyperus esculentus), pigweed (Amaranthus retroflexus), ragweed (common ragweed, Ambrosia elatior), soybean (Glycine max), barnyardgrass (Echinochloa crus-galli), oilseed rape (Brassica napus), waterhemp (common waterhemp, Amaranthus rudis), and velvetleaf (Abutilon theophrasti) were planted into a blend of loam soil and sand and treated preemergence with test chemicals formulated in a non-phytotoxic solvent mixture which included a surfactant. At the same time, plants selected from these crop and weed species and also chickweed (common chickweed, Stellaria media), oat, wild (wild oat, Avena fatua), and kochia (Kochia scoparia), were planted in pots containing Sunshine Redi-Earth® planting medium comprising spaghnum peat moss, vermiculite, starter nutrients and dolomitic limestone and treated with postemergence applications of test chemicals formulated in the same manner. Plants ranged in height from 2 to 18 cm (1- to 4-leaf stage) for postemergence treatments. […] A dash (-) response means no test result.

barley, spring = experiment: Test D postemergence; assay type: in vivo, Hordeum vulgare; settings: scale 0 to 100
Source text: as §1

barley, winter = experiment: Test D postemergence; assay type: in vivo, Hordeum vulgare; settings: scale 0 to 100
Source text: as §1

ryegrass, Ital. [2] = experiment: Test D postemergence; assay type: in vivo, Lolium multiflorum; settings: scale 0 to 100
Source text: as §1

chickweed = experiment: Test D preemergence; assay type: in vivo, Stellaria media; settings: for Plant response rating (0 to 100), Chickweed: 16 g ai/ha, 0 is no effect, 100 is complete control; for Plant response rating: Chickweed: scale 0 to 100
Source text: as §1

windgrass = experiment: Test D preemergence; assay type: in vivo, Apera spica-venti; settings: for Plant response rating (0 to 100), Windgrass: 16 g ai/ha, 0 is no effect, 100 is complete control; for Plant response rating: Windgrass: scale 0 to 100
Source text: as §1

galium = experiment: Test D postemergence; assay type: in vivo, Galium aparine; settings: scale 0 to 100
Source text: as §1

wheat, spring = experiment: Test D postemergence; assay type: in vivo, Triticum aestivum; settings: scale 0 to 100
Source text: as §1

wheat, winter = experiment: Test D postemergence; assay type: in vivo, Triticum aestivum; settings: scale 0 to 100
Source text: as §1

## FC(F)(F)COc1nc(-c2ccccc2)nn1Cc1ccnc(C(F)(F)F)c1 [Compound 24]
canarygrass; 16 g ai/ha
  Plant response rating: Canarygrass: 45
canarygrass; 31 g ai/ha
  Plant response rating: Canarygrass: 55
canarygrass; 62 g ai/ha
  Plant response rating: Canarygrass: 60
canarygrass; 125 g ai/ha
  Plant response rating: Canarygrass: 70
ryegrass, Ital. [1]
  Plant response rating (0 to 100), Ryegrass, Ital.: 40
ryegrass, Ital. [1]; 62 g ai/ha
  Plant response rating: Ryegrass, Ital.: 40
ryegrass, Ital. [1]; 125 g ai/ha
  Plant response rating: Ryegrass, Ital.: 45
johnsongrass; 125 g ai/ha
  Plant response rating (scale of 0 to 100 where 0 is no effect and 100 is complete control): 55
johnsongrass; 250 g ai/ha
  Plant response rating (scale of 0 to 100 where 0 is no effect and 100 is complete control): 85
johnsongrass; 31 g ai/ha
  Johnsongrass plant response rating (0 to 100): 10
johnsongrass; 62 g ai/ha
  Johnsongrass plant response rating (0 to 100): 40
barley, spring; 16 g ai/ha
  Plant response rating: Barley, Spring: 20
barley, spring; 31 g ai/ha
  Plant response rating: Barley, Spring: 25
barley, spring; 62 g ai/ha
  Plant response rating: Barley, Spring: 30
barley, spring; 125 g ai/ha
  Plant response rating: Barley, Spring: 35
barley, winter; 16 g ai/ha
  Plant response rating: Barley, Winter: 15
barley, winter; 31 g ai/ha
  Plant response rating: Barley, Winter: 15
barley, winter; 62 g ai/ha
  Plant response rating: Barley, Winter: 25
barley, winter; 125 g ai/ha
  Plant response rating: Barley, Winter: 25
ryegrass, Ital. [2]; 16 g ai/ha
  Plant response rating: Ryegrass, Ital.: 15
ryegrass, Ital. [2]; 31 g ai/ha
  Plant response rating: Ryegrass, Ital.: 25
ryegrass, Ital. [2]; 62 g ai/ha
  Plant response rating: Ryegrass, Ital.: 30
ryegrass, Ital. [2]; 125 g ai/ha
  Plant response rating: Ryegrass, Ital.: 40
chickweed
  Plant response rating (0 to 100), Chickweed: 55
chickweed; 31 g ai/ha
  Plant response rating: Chickweed: 60
chickweed; 62 g ai/ha
  Plant response rating: Chickweed: 70
chickweed; 125 g ai/ha
  Plant response rating: Chickweed: 90
windgrass
  Plant response rating (0 to 100), Windgrass: 0
windgrass; 62 g ai/ha
  Plant response rating: Windgrass: 65
windgrass; 125 g ai/ha
  Plant response rating: Windgrass: 100
galium; 16 g ai/ha
  Plant response rating: Galium: 55
galium; 31 g ai/ha
  Plant response rating: Galium: 70
galium; 62 g ai/ha
  Plant response rating: Galium: 65
galium; 125 g ai/ha
  Plant response rating: Galium: 75
wheat, spring; 16 g ai/ha
  Plant response rating: Wheat, Spring: 15
wheat, spring; 31 g ai/ha
  Plant response rating: Wheat, Spring: 15
wheat, spring; 62 g ai/ha
  Plant response rating: Wheat, Spring: 25
wheat, spring; 125 g ai/ha
  Plant response rating: Wheat, Spring: 15
wheat, winter; 16 g ai/ha
  Plant response rating: Wheat, Winter: 15
wheat, winter; 31 g ai/ha
  Plant response rating: Wheat, Winter: 15
wheat, winter; 62 g ai/ha
  Plant response rating: Wheat, Winter: 20
wheat, winter; 125 g ai/ha
  Plant response rating: Wheat, Winter: 20

## CCOc1nc(-c2ccccc2)nn1Cc1ccnc(C(F)(F)F)c1 [Compound 27]
canarygrass; 16 g ai/ha
  Plant response rating: Canarygrass: 50
canarygrass; 31 g ai/ha
  Plant response rating: Canarygrass: 65
canarygrass; 62 g ai/ha
  Plant response rating: Canarygrass: 70
canarygrass; 125 g ai/ha
  Plant response rating: Canarygrass: 60
ryegrass, Ital. [1]
  Plant response rating (0 to 100), Ryegrass, Ital.: 25
ryegrass, Ital. [1]; 62 g ai/ha
  Plant response rating: Ryegrass, Ital.: 65
ryegrass, Ital. [1]; 125 g ai/ha
  Plant response rating: Ryegrass, Ital.: 75
johnsongrass; 125 g ai/ha
  Plant response rating (scale of 0 to 100 where 0 is no effect and 100 is complete control): 80
johnsongrass; 250 g ai/ha
  Plant response rating (scale of 0 to 100 where 0 is no effect and 100 is complete control): 100
johnsongrass; 31 g ai/ha
  Johnsongrass plant response rating (0 to 100): 45
johnsongrass; 62 g ai/ha
  Johnsongrass plant response rating (0 to 100): 80
barley, spring; 16 g ai/ha
  Plant response rating: Barley, Spring: 25
barley, spring; 31 g ai/ha
  Plant response rating: Barley, Spring: 25
barley, spring; 62 g ai/ha
  Plant response rating: Barley, Spring: 35
barley, spring; 125 g ai/ha
  Plant response rating: Barley, Spring: 35
barley, winter; 16 g ai/ha
  Plant response rating: Barley, Winter: 15
barley, winter; 31 g ai/ha
  Plant response rating: Barley, Winter: 25
barley, winter; 62 g ai/ha
  Plant response rating: Barley, Winter: 30
barley, winter; 125 g ai/ha
  Plant response rating: Barley, Winter: 35
ryegrass, Ital. [2]; 16 g ai/ha
  Plant response rating: Ryegrass, Ital.: 15
ryegrass, Ital. [2]; 31 g ai/ha
  Plant response rating: Ryegrass, Ital.: 20
ryegrass, Ital. [2]; 62 g ai/ha
  Plant response rating: Ryegrass, Ital.: 35
ryegrass, Ital. [2]; 125 g ai/ha
  Plant response rating: Ryegrass, Ital.: 60
chickweed
  Plant response rating (0 to 100), Chickweed: 85
chickweed; 31 g ai/ha
  Plant response rating: Chickweed: 95
chickweed; 62 g ai/ha
  Plant response rating: Chickweed: 100
chickweed; 125 g ai/ha
  Plant response rating: Chickweed: 100
windgrass
  Plant response rating (0 to 100), Windgrass: 5
windgrass; 62 g ai/ha
  Plant response rating: Windgrass: 80
windgrass; 125 g ai/ha
  Plant response rating: Windgrass: 95
galium; 16 g ai/ha
  Plant response rating: Galium: 70
galium; 31 g ai/ha
  Plant response rating: Galium: 75
galium; 62 g ai/ha
  Plant response rating: Galium: 100
galium; 125 g ai/ha
  Plant response rating: Galium: 100
wheat, spring; 16 g ai/ha
  Plant response rating: Wheat, Spring: 15
wheat, spring; 31 g ai/ha
  Plant response rating: Wheat, Spring: 15
wheat, spring; 62 g ai/ha
  Plant response rating: Wheat, Spring: 20
wheat, spring; 125 g ai/ha
  Plant response rating: Wheat, Spring: 35
wheat, winter; 16 g ai/ha
  Plant response rating: Wheat, Winter: 25
wheat, winter; 31 g ai/ha
  Plant response rating: Wheat, Winter: 25
wheat, winter; 62 g ai/ha
  Plant response rating: Wheat, Winter: 30
wheat, winter; 125 g ai/ha
  Plant response rating: Wheat, Winter: 30
